# Test results as given in PMC8370201, “Amaryllidaceae Alkaloid Cherylline Inhibits the Replication of Dengue and Zika Viruses” (Antimicrobial Agents and Chemotherapy, 2021).
# Key:
# [1] = Cell viability (ATP, Cell-Titer GLO) in Huh7.5 cells; type: cell-based; conditions: human, Huh7.5 cells; Huh7.5, ATP, 48 h posttreatment; read-out: CC50
# Description: (§1) Where indicated for Huh7.5 and Vero E6 cells and PBMCs, cell viability was measured by monitoring of cellular ATP levels using the Cell-Titer GLO assay kit (Promega). Briefly, 10× 10^3 to 20 × 10^3 cells in 50 to 100 μl were seeded in 48-well or 96-well plates and cultured overnight. AAs were added at the designated concentrations for 24 or 48 h, as specified in the text. Then, 50 to 100 μl of room temperature Cell-Titer GLO reagent was added in each well to room temperature-equilibrated cell plates. Plates were rocked for 2 min and rested for 10 min, and the luminescence signal was measured using a microplate spectrophotometer (Biotek Synergy H1 or Tecan Spark multimode microplate reader). Viability was expressed as a fold change calculated using the value of DMSO-treated cells at each concentration; for each AA and CC50, values were determined.
# West Nile virus NS5 = test system: West Nile virus NS5; design: method as in PMID 19062063; conditions: cited from earlier work
# ZIKVR2A [2] = experiment: microbe, parasite or virus in culture; conditions: Zika virus, Huh7.5, read-out: EC50 (μM) for ZIKVR2A, Huh7.5 cells, luciferase at 48 hpi
# DENVGFP [3] = experiment: DENVGFP reporter virus infection of Huh7 cells (flow cytometry / microscopy); conditions: Huh7, treated 2 h before DENVGFP MOI 0.15, 72 hpi, at the chosen concentration
# ZIKVR2A [4] = conditions: CC50/EC50, Huh7.5
# ZIKV NS5 RdRp = test system: ZIKV NS5 RdRp; design: method as in PMID 32452420; conditions: 100 μM; cited from earlier work
# DENVR2A [5] = conditions: CC50/EC50, Huh7.5
# Huh7 cells = experiment: XTT cytotoxicity assay in Huh7 cells; type: cell-based, human; conditions: 0.4 to 400 μM, 72 hours
# Description: Cytotoxicity properties were titrated by metabolism monitoring using the XTT [2,3-bis-(2-methoxy-4-nitro-5-sulfophenyl)-2H-tetrazolium-5-carboxanilide] assay kit (Roche, Millipore Sigma), as described before ([24]). Briefly, Huh7 cells were seeded at 10 × 10^3 cells per well in 96-well plates. […] After 72 h of incubation, medium was replaced by phenol-free DMEM (Wisent) containing 0.3 mg/ml XTT, and cells were incubated for 4 h. Absorbance was measured at 450nm using a microplate spectrophotometer (Synergy H1, Biotek). Treatment conditions with 0.5% DMSO were used as the reference control. The percentage of cell viability was calculated at each concentration.
# DENVR2A [6] = experiment: microbe, parasite or virus in culture; conditions: Dengue virus, Huh7.5, read-out: EC50 (μM) for DENVR2A
# PBMCs = experiment: Cytotoxicity in PBMCs (ATP); type: cell-based, human; conditions: 48 h posttreatment, cherylline 30 μM
# Description: as §1
# ZIKV MR766 = experiment: Plaque assay, infectious titers of WT ZIKV MR766 from Huh7.5 cells; type: cell-based, Zika virus (ZIKV); conditions: treated 2 hpi, supernatant 48 h later
# ZIKV H/PF/2013 = experiment: Plaque assay, infectious titers of WT ZIKV H/PF/2013 from Huh7.5 cells; type: cell-based, Zika virus (ZIKV); conditions: treated 2 hpi, supernatant 48 h later
# DENVGFP [7] = experiment: Time-of-drug-addition and -removal assays, DENVGFP in Huh7 cells; type: cell-based, dengue virus (DENV); conditions: NITD008 10 μM
# Description: For the time-of-drug-addition assay, at the time of infection, AAs were added in wells corresponding to 0 h. At 2 hpi, viral inoculum was removed from every well, and AAs were added back to wells corresponding to 0 h and 2 h. At 4, 7, 12, and 24 hpi, AAs or DMSO diluted in DMEM was added to the appropriate wells. After 72 h, cells were trypsinized and fixed in 4% formaldehyde to measure the percentage of infected cells on an FC500 MPL cytometer. Alternatively, pictures of Hoechst 33342-stained cells were acquired on an Axio Observer microscope. All assays were performed in triplicate.
# At 2 hpi, plates were washed, and medium was replaced to remove remaining viruses in the supernatant. AAs were added back to all wells, except the ones corresponding to 2 h of treatment, in which fresh medium exclusive of any AA was added. Accordingly, after 4, 7, and 12 h of infection, the supernatant was replaced by fresh medium in corresponding wells. After 72 h of incubation, results were acquired as for the time-of-drug-addition assay. All assays were performed in triplicate.
# DENV2 16881s = experiment: Plaque assay, infectious titers of WT DENV2 16881s from Huh7.5 cells; type: cell-based, dengue virus (DENV); conditions: AAs 50 μM, treated 2 hpi, supernatant 48 h later
# Description: Huh7.5 cells were infected with DENV 16881s, ZIKV H/PF/2013, or ZIKV MR766 (MOI, 0.1) or left uninfected. […] Supernatants were harvested 2 days pi, and PFU were determined by plaque assay on VeroE6 cells. Cells incubated overnight (2 × 10^5 cells/well in 24-well plates) were infected with 10-fold serially diluted virus-containing supernatants for 2 h at 37°C. Inoculum was then replaced with MEM (Life Technologies) containing 1.5% carboxymethylcellulose (Millipore-Sigma). ZIKV- and DENV-infected cells were incubated for 5 and 7 days, respectively. One volume of 10% formaldehyde was added to the cells for fixation. Two hours later, cells were washed with tap water and stained with a 1% crystal violet/10% ethanol solution for 30 min. Wells were rinsed with tap water, and the number of plaques were counted to calculate virus titers.
# DENV = test system: DENV; design: method as in PMID 20496087; conditions: read-out: EC50, inhibition of DENV; cited from earlier work
smiles,measurement,setting,value
"O[C@H]1[C@H]2c3cc4c(cc3CN3CCC(=C[C@@H]1O)[C@H]23)OCO4 [Lycorine, lycorine]",CC50 at 48 h,[1],14.5 µM
same,effect on West Nile virus NS5,West Nile virus NS5,no effect
same,EC50,ZIKVR2A [2],0.41 µM
same,"anti-DENV activity in screening (GFP microscopy, words)",DENVGFP [3],sharp decrease in DENV-GFP-infected cells
same,SI ZIKVR2A (therapeutic selectivity index),ZIKVR2A [4],35.4
same,inhibition of ZIKV NS5 RdRp activity in vitro,ZIKV NS5 RdRp,80%
same,SI DENVR2A (therapeutic selectivity index),DENVR2A [5],90.6
same,cytotoxic activity of AAs,Huh7 cells,cytotoxic
same,EC50,DENVR2A [6],0.16 µM
"C#C[C@@]1(O)[C@H](O)[C@@H](CO)O[C@H]1n1ccc2c(N)ncnc21 [NITD008, reference compound]",cytotoxicity in PBMCs,PBMCs,cytotoxic in PBMCs
same,production of ZIKV MR766 infectious particles (words),ZIKV MR766,completely hindered the production of infectious particles
same,production of ZIKV H/PF/2013 infectious particles (words),ZIKV H/PF/2013,completely hindered the production of infectious particles
same,time of drug addition: effect on DENVGFP-infected Huh7 cells 72 hpi,"DENVGFP [7]; added at 0, 2, 4, 7, or 12 hpi",abrogated GFP expression
same,time of drug addition: effect on DENVGFP-infected Huh7 cells 72 hpi,"DENVGFP [7]; added at 24 hpi, cherylline 50 μM",Low levels of infection rose
same,production of DENV infectious particles (words),DENV2 16881s,completely hindered the production of infectious particles
COc1cc2c(cc1OC)-c1cc3ccc(OC)c(OC)c3c[n+]1CC2 [Palmatine],EC50,DENV,26.4 µM
